Test results: publication PMC6366416, “Synthesis and in vitro anticancer activity of certain novel 1-(2-methyl-6-arylpyridin-3-yl)-3-phenylureas as apoptosis-inducing agents” (Journal of Enzyme Inhibition and Medicinal Chemistry, 2019)

Tests used:
[1] = test system: 60 cancer cell lines (NCI, USA); test: NCI one-dose SRB assay, whole panel; format: cell-based, human; settings: 10 μM; cell lines with GI% higher than 10%
Experimental: (§1) The antitumor assay was performed according to the protocol of the Drug Evaluation Branch, NCI, Bethesda[24–26]. A 48 h drug exposure protocol was adopted, and sulforhodamine B (SRB) assay[27] was utilized to assess the cell growth and viability, as reported earlier[17]^,[28].
(§2) The structures of all the newly synthesized pyridines 5a–l were submitted to the National Cancer Institute (NCI) Developmental Therapeutic Program (www.dtp.nci.nih.gov). […] Nine different types of cancer were tested in this assay: colon, ovarian, prostate, leukemia, melanoma, CNS, renal, breast and lung cancers. A 48 h drug exposure protocol was adopted, and sulforhodamine B (SRB) assay[27] was utilized to assess the cell growth and viability.

MDA-MB-231 = test: NCI one-dose SRB growth inhibition; format: cell-based; settings: Homo sapiens, Breast Cancer, 48 h, read-out: GI% MDA-MB-231
Experimental: as §1, §2

MOLT-4 = test: NCI one-dose SRB growth inhibition; format: cell-based; settings: Homo sapiens, Leukemia, 48 h, read-out: GI% MOLT-4
Experimental: as §1, §2

MDA-MB-468 = test: NCI one-dose SRB growth inhibition; format: cell-based; settings: Homo sapiens, Breast Cancer, 48 h, read-out: GI% MDA-MB-468
Experimental: as §1, §2

K-562 = test: NCI one-dose SRB growth inhibition; format: cell-based; settings: Homo sapiens, K562, 48 h, Leukemia, read-out: GI% K-562
Experimental: as §1, §2

SF-295 = test: NCI one-dose SRB growth inhibition; format: cell-based; settings: Homo sapiens, CNS Cancer, 48 h, read-out: GI% SF-295
Experimental: as §1, §2

MCF7 = test: NCI one-dose SRB growth inhibition; format: cell-based; settings: Homo sapiens, Breast Cancer, 48 h, read-out: GI% MCF7
Experimental: as §1, §2

MALME-3M = test: NCI one-dose SRB growth inhibition; format: cell-based; settings: Homo sapiens, Melanoma, 48 h, read-out: GI% MALME-3M
Experimental: as §1, §2

A549/ATCC = test: NCI one-dose SRB growth inhibition; format: cell-based; settings: Homo sapiens, A549, 48 h, Non-Small Cell Lung Cancer, read-out: GI% A549/ATCC
Experimental: as §1, §2

BT-549 = test: NCI one-dose SRB growth inhibition; format: cell-based; settings: Homo sapiens, Breast Cancer, 48 h, read-out: GI% BT-549
Experimental: as §1, §2

NCI-H522 = test: NCI one-dose SRB growth inhibition; format: cell-based; settings: Homo sapiens, NCI-H522, 48 h, Non-Small Cell Lung Cancer, read-out: GI% NCI-H522
Experimental: as §1, §2

DU-145 = test: NCI one-dose SRB growth inhibition; format: cell-based; settings: Homo sapiens, Prostate, 48 h, read-out: GI% DU-145
Experimental: as §1, §2

TK-10 = test: NCI one-dose SRB growth inhibition; format: cell-based; settings: Homo sapiens, Renal Cancer, 48 h, read-out: GI% TK-10
Experimental: as §1, §2

NCI-H322M = test: NCI one-dose SRB growth inhibition; format: cell-based; settings: Homo sapiens, Non-Small Cell Lung Cancer, 48 h, read-out: GI% NCI-H322M
Experimental: as §1, §2

HL-60(TB) = test: NCI one-dose SRB growth inhibition; format: cell-based; settings: Homo sapiens, Leukemia, 48 h, read-out: GI% HL-60(TB)
Experimental: as §1, §2

RXF 393 = test: NCI one-dose SRB growth inhibition; format: cell-based; settings: Homo sapiens, Renal Cancer, 48 h, read-out: GI% RXF 393
Experimental: as §1, §2

NCI/ADR-RES = test: NCI one-dose SRB growth inhibition; format: cell-based; settings: Homo sapiens, Ovarian Cancer, 48 h, read-out: GI% NCI/ADR-RES
Experimental: as §1, §2

CCRF-CEM = test: NCI one-dose SRB growth inhibition; format: cell-based; settings: Homo sapiens, Leukemia, 48 h, read-out: GI% CCRF-CEM
Experimental: as §1, §2

IGROV1 = test: NCI one-dose SRB growth inhibition; format: cell-based; settings: Homo sapiens, IGROV-1, Ovarian Cancer, 48 h, read-out: GI% IGROV1
Experimental: as §1, §2

NCI-H226 = test: NCI one-dose SRB growth inhibition; format: cell-based; settings: Homo sapiens, Non-Small Cell Lung Cancer, 48 h, read-out: GI% NCI-H226
Experimental: as §1, §2

SW-620 = test: NCI one-dose SRB growth inhibition; format: cell-based; settings: Homo sapiens, Colon Cancer, 48 h, read-out: GI% SW-620
Experimental: as §1, §2

NCI-H460 = test: NCI one-dose SRB growth inhibition; format: cell-based; settings: Homo sapiens, Non-Small Cell Lung Cancer, 48 h, read-out: GI% NCI-H460
Experimental: as §1, §2

OVCAR-3 = test: NCI one-dose SRB growth inhibition; format: cell-based; settings: Homo sapiens, OVCAR-3, 48 h, Ovarian Cancer, read-out: GI% OVCAR-3
Experimental: as §1, §2

NCI-H23 = test: NCI one-dose SRB growth inhibition; format: cell-based; settings: Homo sapiens, Non-Small Cell Lung Cancer, 48 h, read-out: GI% NCI-H23
Experimental: as §1, §2

A549 cell line = test: MTT anti-proliferative assay; format: cell-based; settings: Homo sapiens, 48 h of incubation, mean ± SD of three experiments
Experimental: (§3) A549 (non-small cell lung cancer cell line) and HCT-116 (human colon cancer cell line), were obtained from American Type Culture Collection (Manassas, VA, USA). The cells were maintained in Dulbecco’s Modified Eagle’s Medium (DMEM) (Sigma-Aldrich, St. Louis, MO), and supplemented with 10% heat-inactivated FBS (Hyclone), 10 μg/mL of insulin (Manufacturer, Sigma, St. Louis, MO, USA), and 1% penicillin-streptomycin. MTT assay[29] was adopted to assess the in vitro antitumor activity of the newly synthesized pyridines 5a–l according to the reported procedures, using Doxorubicin as a standard treatment. Experimental conditions were tested using three replicates (three wells of the 96-well plate per experimental condition) and all experiments were carried out in triplicates. IC50 values were calculated by the use of the equation for Boltzman sigmoidal concentration–response curve using the nonlinear regression fitting models by Graph Pad, Prism version 5 (GraphPad Software Inc., La Jolla, CA).
(§4) All newly synthesized pyridines 5a–l were examined for their anti-proliferative activity towards two cancer cell lines: non-small cell lung cancer A549 cell line and colon cancer HCT-116 cell line. The MTT colorimetric assay was adopted to assess the anti-proliferative activity as described by Mosmann[29]. Doxorubicin was used as a control in this assay.

HCT-116 cell line = test: MTT anti-proliferative assay; format: cell-based; settings: Homo sapiens, 48 h of incubation, mean ± SD of three experiments
Experimental: as §3, §4

SMILES | Sensitive cell lines no. [1] | inhibition at 10 µM (MDA-MB-231) | inhibition at 10 µM (MOLT-4) | inhibition at 10 µM (MDA-MB-468) | inhibition at 10 µM (K-562) | inhibition at 10 µM (SF-295) | inhibition at 10 µM (MCF7) | inhibition at 10 µM (MALME-3M) | inhibition at 10 µM (A549/ATCC) | inhibition at 10 µM (BT-549) | inhibition at 10 µM (NCI-H522) | inhibition at 10 µM (DU-145) | inhibition at 10 µM (TK-10) | inhibition at 10 µM (NCI-H322M) | inhibition at 10 µM (HL-60(TB)) | inhibition at 10 µM (RXF 393) | inhibition at 10 µM (NCI/ADR-RES) | inhibition at 10 µM (CCRF-CEM) | inhibition at 10 µM (IGROV1) | inhibition at 10 µM (NCI-H226) | also measured
Cc1nc(-c2cccs2)ccc1NC(=O)Nc1ccc(Cl)cc1 [Compound 5i, 1-(4-Chlorophenyl)-3-(2-methyl-6-(thiophen-2-yl)pyridin-3-yl)urea] | 9 | < 10% | 15% | 17% | < 10% | < 10% | 12% | < 10% | 29% | < 10% | 28% | < 10% | < 10% | < 10% | 20% | < 10% | < 10% | < 10% | < 10% | < 10% | inhibition at 10 µM (SW-620): < 10%; inhibition at 10 µM (NCI-H460): < 10%; inhibition at 10 µM (OVCAR-3): < 10%; inhibition at 10 µM (NCI-H23): < 10%; melting point: 234 to 236 °C; IC50 (A549 cell line): 8.73 ± 0.71 µM
Cc1nc(-c2ccc(Cl)cc2)ccc1NC(=O)Nc1cccc(C(F)(F)F)c1 [Compound 5e, 1-(6-(4-Chlorophenyl)-2-methylpyridin-3-yl)-3-(3-(trifluoromethyl)phenyl)urea] | 17 | < 10% | 12% | < 10% | 20% | < 10% | 20% | < 10% | 10% | < 10% | 48% | < 10% | < 10% | < 10% | 21% | < 10% | < 10% | 22% | < 10% | < 10% | inhibition at 10 µM (SW-620): 11%; inhibition at 10 µM (NCI-H460): 34%; inhibition at 10 µM (OVCAR-3): < 10%; inhibition at 10 µM (NCI-H23): < 10%; melting point: 241 to 242 °C; IC50 (A549 cell line): 11.9 ± 0.92 µM; IC50 (HCT-116 cell line): 7.05 ± 0.72 µM
COc1ccc(NC(=O)Nc2ccc(-c3ccc(Cl)cc3)nc2C)cc1 [Compound 5f, 1-(6-(4-Chlorophenyl)-2-methylpyridin-3-yl)-3-(4-methoxyphenyl) urea] | 19 | < 10% | 14% | < 10% | 13% | < 10% | 23% | < 10% | 25% | < 10% | 40% | < 10% | < 10% | < 10% | 12% | 21% | < 10% | 18% | < 10% | 19% | inhibition at 10 µM (SW-620): < 10%; inhibition at 10 µM (NCI-H460): < 10%; inhibition at 10 µM (OVCAR-3): < 10%; inhibition at 10 µM (NCI-H23): < 10%; melting point: 264 to 265 °C; IC50 (A549 cell line): 7.9 ± 0.54 µM; IC50 (HCT-116 cell line): 12.6 ± 1.08 µM
Cc1nc(-c2ccc(Cl)cc2)ccc1NC(=O)Nc1ccc2c(c1)OCO2 [Compound 5g, 1-(Benzo[d][1,3]dioxol-5-yl)-3-(6-(4-chlorophenyl)-2-methylpyridin-3-yl)urea] | 12 | < 10% | 18% | < 10% | 21% | < 10% | < 10% | < 10% | 32% | < 10% | 38% | < 10% | < 10% | < 10% | 24% | < 10% | < 10% | < 10% | < 10% | < 10% | inhibition at 10 µM (SW-620): < 10%; inhibition at 10 µM (NCI-H460): < 10%; inhibition at 10 µM (OVCAR-3): < 10%; inhibition at 10 µM (NCI-H23): < 10%; melting point: 271 to 273 °C; IC50 (A549 cell line): 6.72 ± 0.38 µM
CCOC(=O)c1ccc(NC(=O)Nc2ccc(-c3ccc(F)cc3)nc2C)cc1 [Compound 5c, Ethyl 4-(3-(6-(4-fluorophenyl)-2-methylpyridin-3-yl)ureido)benzoate] | 13 | < 10% | < 10% | < 10% | < 10% | < 10% | 20% | < 10% | 25% | < 10% | 24% | < 10% | < 10% | < 10% | 13% | < 10% | < 10% | < 10% | < 10% | 12% | inhibition at 10 µM (SW-620): < 10%; inhibition at 10 µM (NCI-H460): < 10%; inhibition at 10 µM (OVCAR-3): < 10%; inhibition at 10 µM (NCI-H23): < 10%; melting point: 209 to 211 °C; IC50 (A549 cell line): 9.61 ± 1.03 µM
